Experimental data published in patent publication US8461165B2, “2-Substituted phenyl-5,7-dihydrocarbyl-3,7-dihydropyrrolo[2,3-d] pyrimidin-4-one derivatives, the preparation and the pharmaceutical use thereof” (Yangtze River Pharmaceutical (Group) Co., Ltd, priority 2003, dated 2013).
Counter-ions that a name gives are not always drawn.

How the values were obtained:
male rabbit = assay: penis erection experiment in conscious male rabbits; type: in vivo; conditions: for Length of rabbit penis: conscious rabbits, average of 3 rabbits
Experimental: (Bischoff E.; Schneider K, International Journal of Impotence Research, 2001, 13, 230 235)
The hydrochloride of 3,7-dihydropyrrolo[2,3-d]pyrimidin-4-one derivatives was dissolved into water, and injected to conscious-rabbits intravenously (i.v.) (0.1 mg-3 mg/kg). Erection was accessed by comparing the length of penis before and at 0, 30, 60, 90 and 120 minutes after intravenous administration of the above-mentioned agents.

male rats = assay: effect of single administration on the coitus function of male rats; type: in vivo, rat; conditions: 24 mg/kg oral; for the latent period of straddle / the latent period of the coitus / times of straddle / times of the coitus: single administration, 20 min observation, average ± standard deviation
Experimental: After purchasing, the male rat and the estrogenized female rat were kept in the same cage for 2 days, and the male rat would acquire the sexual experiences. Then, the female rat was taken out of the cage, and the experiments began after the male rat stayed alone in a cage for 5 days. Each tested compound was orally administered in a dosage of 24 mg/kg, the positive group was administered with Sildenafil citrate (Viagra) in a dosage of 24 mg/kg, and the control group was administered with saline at the equal volume (0.1 ml/10 g). Fifty minutes after administration, the tested male rats were placed within a observation container (both the diameter and the height of the container were 24 cm), and the male rats adapted the new environment for 5 minutes. After that, two estrogenized female rats were placed into the container. The sexual behavior of the male rats in 20 minutes was observed under the non-interfering condition using Panasonic WVCP410/G monitor, the latent period of straddle, times of straddle, as well as the latent period of the coitus and times of the coitus. All the experiments were carried out at 21-24° C., and completed before 11:00 AM. The comparative results among the compounds of the invention, the blank and the positive control drug Sildenafil citrate were listed in Table 2.

mice = assay: acute toxicity in mice; type: in vivo; conditions: single dose
Experimental: Furthermore, none of any obvious sign of adverse acute toxicity is shown for the compounds of this invention tested in rat and dog, both intravenously (i.v.) and orally (p.o.) at up to 3 mg/Kg, has shown. For the situation of mice, no deaths occurred after doses of up to 100 mg/Kg i.v. The LD50 for a single dose of compound I-HCl in mice is 2000 mg/kg.

[1] = molecular target: phosphodiesterase 5 (PDE5) (Homo sapiens, UniProt O76074); assay: inhibition of phosphodiesterase 5 (SPA technique); type: biochemical
Experimental: The bioactivity inhibiting phosphodiesterase 5 (PDE5) of compounds of formula I was measured cross the reference of methods (Hidaka H, et al Biochim. Biochim. Biophys. Acta, 1976, 429, 485; Kim D-K, et al., Bioorg. Med. Chem. 2001, 9, 3013). The inhibiting activity of PDE5 was determined using SPA technique and the method of chemical fluorescence. The method was as follows: firstly, the reaction time curve and the enzyme concentration curve of PDE5 reaction system were determined by Microplate Scintillation & Luminescence Counter (TopCount Counter), by which the optimal reaction condition was determined. Under the optimized conditions, the inhibition experiments on PDE5 were carried out.

man = conditions: cited from earlier work
[2] = 0 min after i.v. administration (0.1 mg-3 mg/kg)
[3] = 30 min after i.v. administration (0.1 mg-3 mg/kg)
[4] = 60 min after i.v. administration (0.1 mg-3 mg/kg)
[5] = 90 min after i.v. administration (0.1 mg-3 mg/kg)
[6] = 120 min after i.v. administration (0.1 mg-3 mg/kg)

In the case of `CCCn1cc(C)c2c(=O)[nH]c(-c3cc(S(=O)(=O)N4CCN(CC)CC4)ccc3OCC)nc21.Cl.Cl` [Compound 1-2HCl, 2-[2-ethoxyl-5-(4-ethylpiperazinyl-1-sulfonyl)phenyl]-5-methyl-7-n-propyl-3,7-dihydropyrrolo[2,3-d]pyrimidin-4-one dihydrochloride], the “Length of rabbit penis” value (male rabbit; [2]) is reported as 1.3 mm, the “Length of rabbit penis” value (male rabbit; [3]) is reported as 3.0 mm and the “Length of rabbit penis” value (male rabbit; [4]) is reported as 2.0 mm. The “Length of rabbit penis” value (male rabbit; [5]) was 1.0 mm and the “Length of rabbit penis” value (male rabbit; [6]) was 1.0 mm.
For `CCCn1cc(C)c2c(=O)[nH]c(-c3cc(S(=O)(=O)N4CCN(CC)CC4)ccc3OCC)nc21.Cl` [Compound 1-HCl, 2-[2-ethoxyl-5-(4-ethylpiperazinyl-1-sulfonyl)phenyl]-5-methyl-7-n-propyl-3,7-dihydropyrrolo[2,3-d]pyrimidin-4-one monohydrochloride], the “effect on sexual function compared with Sildenafil citrate” value (male rats; both groups) was “stronger than that of the Sildenafil citrate group”, the “the latent period of straddle” value (male rats) was 2.6 ± 1.13 min and the “the latent period of the coitus” value (male rats) was 7.1 ± 5.62 min. The times of straddle (male rats) was 7.6 ± 2.70, the “times of the coitus” value (male rats) was 13.1 ± 8.77 and the “times of the coitus compared with positive control group” value (male rats; versus Sildenafil citrate, p<0.05) was “much more than that of the positive control group”. The “indexes of sexual function of the rats (in words)” value (male rats; versus saline) was “obviously enhanced”, the “latent period of coitus (in words)” value (male rats; versus saline) was “remarkably shortened” and the “latent period of straddle (in words)” value (male rats; versus saline) was “remarkably shortened”. For the same molecule, the “times of the coitus (in words)” value (male rats; versus saline) was “obviously increased”, the LD50 (mice) was 2000 mg/kg and the “inhibiting rate on PDE5” value ([1]; concentration 10^−8 mol/L) was 65.62%. The “Length of rabbit penis” value (male rabbit; [2]) was 8.3 mm, the “Length of rabbit penis” value (male rabbit; [3]) was 5.7 mm and the “Length of rabbit penis” value (male rabbit; [4]) was 5.3 mm. For the same molecule, the “Length of rabbit penis” value (male rabbit; [5]) was 2.0 mm, the “Length of rabbit penis” value (male rabbit; [6]) was 1.3 mm and the “potential in treatment of functional erectile dysfunction (in words)” value (male rabbit; rabbit penis erection, i.v.) was “quick onset and prolonged effectiveness”.
For `CCCn1cc(C)c2c(=O)[nH]c(-c3cc(S(=O)(=O)N4CCN(C)CC4)ccc3OCC)nc21.Cl` [Compound 6-2HCl, 2-[2-ethoxyl-5-(4-methylpiperazinyl-1-sulfonyl)phenyl]-5-methyl-7-n-propyl-3,7-dihydropyrrolo[2,3-d]pyrimidin-4-one], the “Length of rabbit penis” value (male rabbit; [2]) was 0.0 mm, the “Length of rabbit penis” value (male rabbit; [3]) was 5.3 mm and the “Length of rabbit penis” value (male rabbit; [4]) was 2.7 mm. For the same molecule, the “Length of rabbit penis” value (male rabbit; [5]) was 1.7 mm and the “Length of rabbit penis” value (male rabbit; [6]) was 0.0 mm.
For `CCCn1cc(C)c2c(=O)[nH]c(-c3cc(S(=O)(=O)N4CCN(C)CC4)ccc3OCC)nc21.Cl` [Compound 6-HCl, 2-[2-ethoxyl-5-(4-methylpiperazinyl-1-sulfonyl)phenyl]-5-methyl-7-n-propyl-3,7-dihydropyrrolo[2,3-d]pyrimidin-4-one], the “the latent period of straddle” value (male rats) was 6.4 ± 3.07 min, the “the latent period of the coitus” value (male rats) was 8.8 ± 5.85 min and the times of straddle (male rats) was 8.0 ± 3.93. The “times of the coitus” value (male rats) was 9.0 ± 8.50, the “latent period of coitus compared with positive control group” value (male rats; versus Sildenafil citrate) was “remarkably shorter than that of the positive control group” and the “indexes of sexual function of the rats (in words)” value (male rats; versus saline) was “obviously enhanced”.
For `CCCn1cc(C)c2c(=O)[nH]c(-c3cc(S(=O)(=O)N4CCN(C(=O)OCC)CC4)ccc3OCC)nc21.Cl.Cl` [Compound 8-2HCl, 2-[2-ethoxyl-5-(4-ethoxylcarbonylpiperazinyl-1-sulfonyl)phenyl]-5-methyl-7-n-propyl-3,7-dihydropyrrolo[2,3-d]pyrimidin-4-one], the “Length of rabbit penis” value (male rabbit; [2]) was 2.7 mm, the “Length of rabbit penis” value (male rabbit; [3]) was 1.7 mm and the “Length of rabbit penis” value (male rabbit; [4]) was 1.3 mm. The “Length of rabbit penis” value (male rabbit; [5]) was 0.7 mm and the “Length of rabbit penis” value (male rabbit; [6]) was 0.0 mm.
In the case of `CCCn1cc(C)c2c(=O)[nH]c(-c3cc(S(=O)(=O)N4CCN(Cc5ccccc5)CC4)ccc3OCC)nc21.Cl.Cl` [Compound 19-2HCl, 2-[2-ethoxyl-5-(4-benzylpiperazinyl-1-sulfonyl)phenyl]-5-methyl-7-n-propyl-3,7-dihydropyrrolo[2,3-d]pyrimidin-4-one], the “Length of rabbit penis” value (male rabbit; [2]) is reported as 1.7 mm, the “Length of rabbit penis” value (male rabbit; [3]) is reported as 4.0 mm and the “Length of rabbit penis” value (male rabbit; [4]) is reported as 4.3 mm. The “Length of rabbit penis” value (male rabbit; [5]) was 4.0 mm and the “Length of rabbit penis” value (male rabbit; [6]) was 0.0 mm.
With `CCCc1nn(C)c2c(=O)[nH]c(-c3cc(S(=O)(=O)N4CCN(C)CC4)ccc3OCC)nc12` [Sildenafil citrate, reference compound] the “the latent period of straddle” value (male rats) was 5.0 ± 4.74 min, the “the latent period of the coitus” value (male rats) was 8.2 ± 4.02 min and the times of straddle (male rats) was 12.7 ± 7.18. For the same molecule, the “times of the coitus” value (male rats) was 8.2 ± 5.25.
For `CCCc1nn(C)c2c(=O)[nH]c(-c3cc(S(=O)(=O)N4CCN(C)CC4)ccc3OCC)nc12` [sildenafil, reference compound], the “effective rates in treating male sexual organs erectile dysfunction” value (man) is listed as 80% and the inhibition at 0.01 µM ([1]; read-out: inhibiting rate on PDE5) is listed as 31.7%.
